This assay deals with TcdB CPD E753R R745E (Clostridioides difficile, UniProt P18177, E753R/R745E). Format: biochemical, Clostridium difficile.

Regarding inositol hexakisphosphate [InsP6], the “factor by which activity is decreased relative to wildtype TcdB CPD” value is 23.

For the origin of these results see article PMC3076311 (Nature structural & molecular biology, 2011).
